Data reported in publication PMC12676778, “Long-tailed class I myosins rely on tail-mediated phosphoinositide recognition for specific membrane recruitment” (Cell Communication and Signaling : CCS, 2025).

Tests used:
[1] = tested on: Dictyostelium cells; experiment: Myosin-1 localization in LY294002-treated (PI(3,4,5)P3-depleted) cells during endocytosis, confocal imaging; format: cell-based, Dictyostelium discoideum; conditions: 20 µM, starving cells
Experimental: Microtubule depolymerization rates were quantified by measuring individual microtubule length reduction over time using Andor Solis software. Cellular localization of fluorescently tagged myosins and time-lapse imaging were performed on an inverted Leica TCS SP2 AOBS confocal microscope and a Leica DMi8 M system equipped with a 63×/1.4 NA oil immersion objective. Bright-field fluorescence microscopy employed an Olympus IX81 inverted microscope with a 60×/1.49 NA oil immersion lens (ApoN, Olympus). For imaging, cells were seeded on glass-bottom dishes (Ibidi), washed twice with MES buffer (20 mM MES, pH 6.8, 0.2 mM CaCl₂, 2 mM MgCl₂), and maintained in this buffer during acquisition. Phagocytic uptake assays were performed following a 2-hour starvation, after which heat-killed yeast particles were added and time-lapse images recorded. […] Image processing was performed using Leica Confocal Software, and quantitative analysis was conducted with ImageJ (NIH, Bethesda, MD, USA). Fluorescence intensity profiles were obtained by drawing lines along the regions of the cups, as illustrated in Fig. 5. Fluorescence data were normalized to the maximum intensity and interpolated using the interpolation algorithm in Origin to account for variations in cup length. Frames showing association of myosin-1C or myosin-1D with the cups were quantified. […]

[2] = biological target: T1, Myosin-1C-tail (Dictyostelium discoideum, UniProt P42522); experiment: liposome co-sedimentation, YFP fluorescence of supernatant; format: binding; conditions: PolyPIPosomes (5% PIP, 95% PE + PC), accessible lipid; 10 mM Tris pH 7.5, 100 mM NaCl, 1 mM EGTA, room temperature
T1 construct: gene myoC; GST and/or YFP tags kept; E. coli Rosetta pLysS
T1 sequence (P42522 699-1182 limits assumed): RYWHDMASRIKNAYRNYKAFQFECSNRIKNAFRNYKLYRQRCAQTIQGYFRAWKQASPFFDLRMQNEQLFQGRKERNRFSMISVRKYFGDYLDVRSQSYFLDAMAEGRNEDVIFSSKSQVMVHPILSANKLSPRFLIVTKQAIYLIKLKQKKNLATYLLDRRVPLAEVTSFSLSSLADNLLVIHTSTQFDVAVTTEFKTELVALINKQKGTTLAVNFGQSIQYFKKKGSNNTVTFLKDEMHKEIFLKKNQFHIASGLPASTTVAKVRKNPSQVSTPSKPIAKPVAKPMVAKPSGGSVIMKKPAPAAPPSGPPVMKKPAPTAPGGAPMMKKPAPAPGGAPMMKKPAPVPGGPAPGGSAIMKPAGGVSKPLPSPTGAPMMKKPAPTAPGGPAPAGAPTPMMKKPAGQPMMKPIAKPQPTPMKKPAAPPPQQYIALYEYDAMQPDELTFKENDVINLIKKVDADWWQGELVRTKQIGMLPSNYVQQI
From the text: liposome co-sedimentation, YFP fluorescence of supernatant on Myosin-1C-tail

[3] = biological target: T2, Myosin-1D-tail (Dictyostelium discoideum, UniProt P34109); experiment: as above; format: binding; conditions: PolyPIPosomes (5% PIP, 95% PE + PC), accessible lipid; 10 mM Tris pH 7.5, 100 mM NaCl, 1 mM EGTA, room temperature
T2 construct: gene myoD; tail fragment (TH1, SH3, TH2), residues 717-1113; N-terminal GST and/or C-terminal YFP tags kept; E. coli Rosetta pLysS
T2 sequence (P34109 717-1109): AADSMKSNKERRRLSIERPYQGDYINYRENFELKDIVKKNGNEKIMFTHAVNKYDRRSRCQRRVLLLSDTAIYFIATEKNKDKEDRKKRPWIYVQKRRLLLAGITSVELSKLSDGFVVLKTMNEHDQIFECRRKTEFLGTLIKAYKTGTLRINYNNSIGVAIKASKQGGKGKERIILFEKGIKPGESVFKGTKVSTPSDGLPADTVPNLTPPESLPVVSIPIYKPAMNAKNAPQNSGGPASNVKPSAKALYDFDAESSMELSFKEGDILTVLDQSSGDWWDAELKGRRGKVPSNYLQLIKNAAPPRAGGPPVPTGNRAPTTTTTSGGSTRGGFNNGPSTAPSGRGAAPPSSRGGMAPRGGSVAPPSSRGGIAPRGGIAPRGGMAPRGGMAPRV
From the text: liposome co-sedimentation, YFP fluorescence of supernatant on Myosin-1D-tail

[4] = biological target: T3, Myosin-1B-tail (Dictyostelium discoideum, UniProt P34092); experiment: as above; format: binding; conditions: PolyPIPosomes (5% PIP, 95% PE + PC), accessible lipid; 10 mM Tris pH 7.5, 100 mM NaCl, 1 mM EGTA, room temperature
T3 construct: gene myoB; tail fragment (TH1, TH2, SH3), residues 717-1111; N-terminal GST and/or C-terminal YFP tags kept; E. coli Rosetta pLysS
T3 sequence (P34092 717-1111): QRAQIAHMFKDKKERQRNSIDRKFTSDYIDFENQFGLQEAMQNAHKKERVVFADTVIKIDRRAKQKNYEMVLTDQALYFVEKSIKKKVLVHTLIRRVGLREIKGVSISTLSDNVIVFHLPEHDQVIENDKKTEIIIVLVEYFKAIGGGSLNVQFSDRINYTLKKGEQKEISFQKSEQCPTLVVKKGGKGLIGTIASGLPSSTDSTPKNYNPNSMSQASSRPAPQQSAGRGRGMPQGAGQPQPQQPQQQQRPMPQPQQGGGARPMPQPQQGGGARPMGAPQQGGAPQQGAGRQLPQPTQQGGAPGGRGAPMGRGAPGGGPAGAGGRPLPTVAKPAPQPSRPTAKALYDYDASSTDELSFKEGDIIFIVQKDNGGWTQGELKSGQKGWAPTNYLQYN
From the text: liposome co-sedimentation, YFP fluorescence of supernatant on Myosin-1B-tail

In the case of O=c1cc(N2CCOCC2)oc2c(-c3ccccc3)cccc12 [LY294002], the “cortical actin dynamics and association of actin with the early endosome” value [1] is reported as “did not disrupt” and the “localization of myosin-1C and myosin-1D with endocytic cups and endosomal membranes” value [1] is reported as “almost fully abolished”.

PI(3)P was tested, and the Kd [2] was 4000 ± 300 nM and the Kd [3] was 1700 ± 300 nM.

Molecule PI(3,4)P2 has a Kd [4] of 2200 ± 400 nM.

PI(3,4,5)P3 gave a Kd [2] of 2500 ± 300 nM and a Kd [3] of 300 ± 40 nM.

In the case of PI(3,5)P2, the Kd [2] is reported as 600 ± 100 nM and the Kd [3] is reported as 800 ± 100 nM.

For PI(4)P, the Kd [2] was 400 ± 100 nM and the Kd [3] was 1200 ± 200 nM.

Molecule PI(4,5)P2 has a Kd [3] of 700 ± 100 nM.

Work on PI(5)P yielded a Kd [2] of 500 ± 100 nM and a Kd [4] of 7700 ± 600 nM.
